Assay results as given in ChEMBL document CHEMBL1201862, “PubChem BioAssay data set” (2004).
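Each compound was tested at five concentrations against cells in 96-well plates for 48 hours. The concentration for 50% growth inhibition is given as GI50.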 Active and inactive are the calls of the source. Rule as the data show it: active = GI50 up to about 1.1 µM and inactive = higher.

Columns and labels:
Experiment in all cases: NCI anticancer screen, dose series, 48 h
EKVX = system: EKVX
SK-MEL-28 = system: SK-MEL-28
HOP-62 = system: HOP-62
CAKI-1 = system: CAKI-1
OVCAR-3 = system: OVCAR-3
SF-268 = system: SF-268
KM-20L2 = system: KM-20L2
SK-OV-3 = system: SK-OV-3
IGROV-1 = system: IGROV-1
Malme-3M = system: Malme-3M
UO-31 = system: UO-31
HCT-116 = system: HCT-116
HCT-15 = system: HCT-15
SN12C = system: SN12C
HOP-92 = system: HOP-92
OVCAR-8 = system: OVCAR-8
MOLT-4 = system: MOLT-4
SR = system: SR
BT-549 = system: BT-549
K562 = system: K562

SMILES	GI50 (EKVX)	GI50 (SK-MEL-28)	GI50 (HOP-62)	GI50 (CAKI-1)	GI50 (OVCAR-3)	GI50 (SF-268)	GI50 (KM-20L2)	GI50 (SK-OV-3)	GI50 (IGROV-1)	GI50 (Malme-3M)	GI50 (UO-31)	GI50 (HCT-116)	GI50 (HCT-15) [µM]	GI50 (SN12C)	GI50 (HOP-92)	GI50 (OVCAR-8)	GI50 (MOLT-4)	GI50 (SR)	GI50 (BT-549)	GI50 (K562)
O=C1C(=O)N(c2nccs2)C(=O)C(=O)C1c1nc2ccccc2s1	> 100 µM (inactive)	> 100 µM (inactive)	> 100 µM (inactive)	> 100 µM (inactive)	> 100 µM (inactive)	> 100 µM (inactive)	> 100 µM (inactive)	> 100 µM (inactive)	> 100 µM (inactive)	> 100 µM (inactive)	> 100 µM (inactive)	> 100 µM (inactive)	> 100	> 100 µM (inactive)	> 100 µM (inactive)	> 100 µM (inactive)	–	–	–	–
COc1ccc2c(c1)CN([C@@H](C)[C@H]1CC[C@H]3[C@@H]4CC[C@H]5C[C@@H](O)CC[C@]5(C)[C@H]4CC[C@]13C)CO2	3.36 µM (inactive)	2.48 µM (inactive)	2 µM (inactive)	4.75 µM (inactive)	5.79 µM (inactive)	2.26 µM (inactive)	–	1.7 µM (inactive)	3.95 µM (inactive)	1.53 µM (inactive)	1.81 µM (inactive)	2.17 µM (inactive)	1.32	8.57 µM (inactive)	1.74 µM (inactive)	2.71 µM (inactive)	1.03 µM (active)	0.321 µM (active)	3.38 µM (inactive)	0.787 µM (active)
O=CNc1ccccc1OCCOc1ccccc1NC=O	> 100 µM (inactive)	> 100 µM (inactive)	> 100 µM (inactive)	> 100 µM (inactive)	> 100 µM (inactive)	> 100 µM (inactive)	–	> 100 µM (inactive)	> 100 µM (inactive)	> 100 µM (inactive)	> 100 µM (inactive)	> 100 µM (inactive)	> 100	> 100 µM (inactive)	> 100 µM (inactive)	> 100 µM (inactive)	> 100 µM (inactive)	> 100 µM (inactive)	> 100 µM (inactive)	> 100 µM (inactive)
CCCCCCCCCCCCC/C=C(/COCC[N+](C)(C)C)OC(C)=O.CCCCCCCCCCCCCC/C(=C/OCC[N+](C)(C)C)OC(C)=O	3.1 µM (inactive)	6.5 µM (inactive)	1.65 µM (inactive)	1.58 µM (inactive)	1.61 µM (inactive)	1.87 µM (inactive)	–	4.63 µM (inactive)	1.69 µM (inactive)	5.68 µM (inactive)	14.3 µM (inactive)	0.643 µM (active)	3.43	3.01 µM (inactive)	1.16 µM (inactive)	0.944 µM (active)	2.29 µM (inactive)	1.57 µM (inactive)	1.45 µM (inactive)	1.71 µM (inactive)
Cc1ccc(S(=O)(=O)Oc2coc(CO)cc2=O)cc1	15.3 µM (inactive)	17.3 µM (inactive)	14.7 µM (inactive)	4.42 µM (inactive)	15.3 µM (inactive)	9.42 µM (inactive)	–	17.1 µM (inactive)	9.29 µM (inactive)	16.2 µM (inactive)	14.1 µM (inactive)	4.25 µM (inactive)	13.3	12.7 µM (inactive)	16 µM (inactive)	17.6 µM (inactive)	13.4 µM (inactive)	3.82 µM (inactive)	13.8 µM (inactive)	6.04 µM (inactive)
OC(CC(c1ccccc1)c1ccc(Cl)cc1)c1ccc(Cl)cc1 (configuration not stated)	30.5 µM (inactive)	51.6 µM (inactive)	36.4 µM (inactive)	27.8 µM (inactive)	33.6 µM (inactive)	37.1 µM (inactive)	–	36.1 µM (inactive)	35.8 µM (inactive)	25.5 µM (inactive)	33.3 µM (inactive)	31.3 µM (inactive)	33.4	25.2 µM (inactive)	26.4 µM (inactive)	36.8 µM (inactive)	34.2 µM (inactive)	27.3 µM (inactive)	56.6 µM (inactive)	32.4 µM (inactive)
CCc1c(C#N)c(=O)[nH]c(=O)n1CCN1CCN(C(=O)NCCCCCCNC(=O)N2CCN(CCn3c(CC)c(C#N)c(=O)[nH]c3=O)CC2)CC1	> 100 µM (inactive)	> 10 µM (inactive)	> 100 µM (inactive)	> 100 µM (inactive)	> 100 µM (inactive)	–	> 100 µM (inactive)	> 100 µM (inactive)	> 100 µM (inactive)	–	–	> 100 µM (inactive)	> 100	> 100 µM (inactive)	–	> 100 µM (inactive)	> 100 µM (inactive)	–	–	> 100 µM (inactive)
O=C(C[C@@H]1NCCC[C@H]1O)Cn1cnc2cc(Br)c(Cl)cc2c1=O	0.0244 µM (active)	0.0274 µM (active)	0.0279 µM (active)	0.0583 µM (active)	< 0.0176 µM (active)	0.0315 µM (active)	–	< 0.0118 µM (active)	0.0296 µM (active)	0.0318 µM (active)	0.0376 µM (active)	0.023 µM (active)	0.0276	< 0.01 µM (active)	0.0304 µM (active)	< 0.0117 µM (active)	0.0266 µM (active)	0.0146 µM (active)	0.0347 µM (active)	0.0216 µM (active)
Cc1nc(O)c2c3c(sc2n1)CCCC3	19.9 µM (inactive)	> 100 µM (inactive)	> 100 µM (inactive)	> 100 µM (inactive)	> 100 µM (inactive)	> 100 µM (inactive)	–	> 100 µM (inactive)	> 100 µM (inactive)	> 100 µM (inactive)	20.4 µM (inactive)	36.7 µM (inactive)	> 100	51.5 µM (inactive)	> 100 µM (inactive)	> 100 µM (inactive)	> 100 µM (inactive)	27 µM (inactive)	> 100 µM (inactive)	96.6 µM (inactive)
COc1ccc(Cn2c3ccc([N+](=O)[O-])cc3c(=O)n2Cc2ccccn2)cc1	66.5 µM (inactive)	> 100 µM (inactive)	> 100 µM (inactive)	> 100 µM (inactive)	> 100 µM (inactive)	> 100 µM (inactive)	–	> 100 µM (inactive)	> 100 µM (inactive)	80.9 µM (inactive)	> 100 µM (inactive)	> 100 µM (inactive)	> 100	> 100 µM (inactive)	90.6 µM (inactive)	57.7 µM (inactive)	31.3 µM (inactive)	63 µM (inactive)	> 100 µM (inactive)	67 µM (inactive)
C=C(c1ccccc1)C1ON(C)CCc2cc(OC)c(OC)cc21 (configuration not stated)	> 100 µM (inactive)	45.1 µM (inactive)	> 100 µM (inactive)	> 100 µM (inactive)	> 100 µM (inactive)	49.2 µM (inactive)	–	> 100 µM (inactive)	> 100 µM (inactive)	96.4 µM (inactive)	81.5 µM (inactive)	43.4 µM (inactive)	68.1	> 100 µM (inactive)	34.4 µM (inactive)	> 100 µM (inactive)	89.3 µM (inactive)	88.7 µM (inactive)	> 100 µM (inactive)	58.7 µM (inactive)
O=C(O)CCO/N=C1/C(=C2/C(=O)Nc3ccccc32)Nc2ccccc21	11.2 µM (inactive)	33.3 µM (inactive)	26.4 µM (inactive)	4.97 µM (inactive)	11.7 µM (inactive)	26.1 µM (inactive)	–	2.98 µM (inactive)	11.9 µM (inactive)	54.5 µM (inactive)	12 µM (inactive)	12.3 µM (inactive)	6.58	23.7 µM (inactive)	36.1 µM (inactive)	38.1 µM (inactive)	17.1 µM (inactive)	12 µM (inactive)	24.5 µM (inactive)	36.7 µM (inactive)
CC(C)CNC(=O)c1c(NC(=O)c2ccccc2)sc2[nH]c(=O)n(-c3ccccc3)c(=O)c12	70.6 µM (inactive)	> 100 µM (inactive)	15.3 µM (inactive)	> 42.1 µM (inactive)	> 100 µM (inactive)	37.1 µM (inactive)	–	23.8 µM (inactive)	74.3 µM (inactive)	> 82.8 µM (inactive)	> 71.4 µM (inactive)	> 86.3 µM (inactive)	> 100	> 100 µM (inactive)	5.09 µM (inactive)	> 100 µM (inactive)	51.3 µM (inactive)	49.4 µM (inactive)	26.4 µM (inactive)	31 µM (inactive)
CN(/N=C/c1ccccc1O)c1ccc2ccccc2n1	19.8 µM (inactive)	65.9 µM (inactive)	16.4 µM (inactive)	33.9 µM (inactive)	19.5 µM (inactive)	22.5 µM (inactive)	–	16.3 µM (inactive)	11.3 µM (inactive)	21.6 µM (inactive)	20.8 µM (inactive)	48.3 µM (inactive)	12.5	32.4 µM (inactive)	35.3 µM (inactive)	33.8 µM (inactive)	24 µM (inactive)	19.7 µM (inactive)	23.6 µM (inactive)	60.3 µM (inactive)
O=C1Nc2cccc(Cl)c2/C1=C\c1c(-c2ccccc2)nc2n1CCS2	26.1 µM (inactive)	21.2 µM (inactive)	25.9 µM (inactive)	22.9 µM (inactive)	19.4 µM (inactive)	20.3 µM (inactive)	–	24.4 µM (inactive)	12.8 µM (inactive)	20.2 µM (inactive)	19.1 µM (inactive)	20.2 µM (inactive)	18.9	16 µM (inactive)	20 µM (inactive)	24.7 µM (inactive)	10.6 µM (inactive)	19.8 µM (inactive)	22.1 µM (inactive)	17.2 µM (inactive)
